In patent US20250082598A1, “Melafenoxate, 2-(1-adamantylamino)ethyl 2-(4-chlorophenoxy)acetate and derivatives thereof for treating circadian rhythm sleep disorders with neurodegenerative diseases such as Alzheimer's disease” (NLS Pharmaceutics AG, priority 2021, published 2025):
Entries after “also recorded” stand apart in the source; their conditions may differ.

Assays:
[1] = target: T1, 5-HT7 (h) (Homo sapiens, UniProt P34969); assay: Radioligand binding, 5-HT7 (h); conditions: 10^−5 M; agonist radioligand
T1 construct: CEREP (Eurofins, France)
T1 sequence (P34969 whole entry): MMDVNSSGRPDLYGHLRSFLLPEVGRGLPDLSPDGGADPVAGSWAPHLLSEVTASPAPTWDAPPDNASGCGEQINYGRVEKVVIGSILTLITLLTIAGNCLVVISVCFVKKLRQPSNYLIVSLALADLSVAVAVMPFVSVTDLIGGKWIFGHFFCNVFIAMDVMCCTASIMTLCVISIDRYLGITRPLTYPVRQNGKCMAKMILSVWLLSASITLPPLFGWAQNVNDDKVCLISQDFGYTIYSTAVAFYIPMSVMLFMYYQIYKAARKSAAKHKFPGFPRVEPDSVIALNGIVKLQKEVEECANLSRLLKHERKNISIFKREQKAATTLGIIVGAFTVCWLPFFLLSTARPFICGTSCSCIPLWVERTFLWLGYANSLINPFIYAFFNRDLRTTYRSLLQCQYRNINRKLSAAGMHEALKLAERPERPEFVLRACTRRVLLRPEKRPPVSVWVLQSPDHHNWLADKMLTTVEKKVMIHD
Method: (§1) Melafenoxate was tested at 10^−5 M, calculated as a % inhibition of control specific binding of a radioactively labeled ligand specific for each target.
(§2) This binding profile panel was broadly defined with roughly an equal number of selective, central and peripheral therapeutically relevant targets, including native animal tissues, radioligands and specific enzymes involved in cell cycle regulation in accordance with Eurofins Standard Operating Procedure.
(§3) For radioligand binding experiments, the half maximal inhibitory concentration (IC50) and the half maximal effective concentration (EC50) values were determined (via computer software) by nonlinear regression analysis of the competition curves using Hill equation curve fitting. The inhibition constants (Ki) were calculated using the Cheng-Prusoff equation (Ki=IC50/(1+(L/KD)), where L is the concentration of radioligand in the assay, and KD is the affinity of the radioligand for the receptor.^49
(§4) The results are expressed as a % control specific binding ([measured specific binding/control specific binding]×100) and as a % inhibition of control specific binding (100−[(measured specific binding/control specific binding)×100]) obtained in the presence of the test compounds. […]

[2] = target: T2, DAT (h) (Homo sapiens, UniProt Q01959); assay: Radioligand binding, DAT (h); conditions: 10^−5 M; antagonist radioligand
T2 construct: Eurofins
T2 sequence (Q01959 whole entry): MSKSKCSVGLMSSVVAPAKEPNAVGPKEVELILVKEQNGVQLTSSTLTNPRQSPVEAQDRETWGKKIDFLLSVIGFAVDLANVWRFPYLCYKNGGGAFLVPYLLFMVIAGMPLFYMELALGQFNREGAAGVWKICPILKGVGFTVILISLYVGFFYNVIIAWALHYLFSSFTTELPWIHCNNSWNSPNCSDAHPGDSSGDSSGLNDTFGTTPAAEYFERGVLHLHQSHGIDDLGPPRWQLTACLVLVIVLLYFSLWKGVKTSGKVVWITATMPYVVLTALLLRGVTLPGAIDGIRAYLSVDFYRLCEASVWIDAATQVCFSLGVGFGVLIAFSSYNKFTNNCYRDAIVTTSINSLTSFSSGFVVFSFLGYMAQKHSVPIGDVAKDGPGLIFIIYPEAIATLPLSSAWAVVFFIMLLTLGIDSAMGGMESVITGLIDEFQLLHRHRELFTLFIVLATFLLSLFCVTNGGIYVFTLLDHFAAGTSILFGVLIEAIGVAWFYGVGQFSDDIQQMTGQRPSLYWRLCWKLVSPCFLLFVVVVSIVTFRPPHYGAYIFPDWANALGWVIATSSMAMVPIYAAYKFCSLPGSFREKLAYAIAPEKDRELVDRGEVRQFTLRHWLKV
Method: as §1, §2, §3, §4

[3] = tested on: C57BL/6J mice; assay: Spontaneous locomotor activity in open-field; format: in vivo; conditions: 3.125, 6.25, 12.5, 25, 50 and 100 mg/kg
Method: (§5) Experiments were carried out on C57BL/6J mice.
The effects of NLS-8 (6 doses) on spontaneous locomotor activity were examined. For this purpose, animals received an injection of NLS-8 (3.125, 6.25, 12.5, 25, 50 and 100 mg/kg) or its vehicle (Control group) (N=6/group) and were placed in an open-field for a 90-min session.
Locomotor activity (distance travelled in the open-field during the first, second and third 30-min period following treatment) was automatically recorded.
Data analysis: between group comparisons of all groups vs. the Control group: unpaired Student's t test.

[4] = target: T3, NET (h) (Homo sapiens, UniProt P23975); assay: Radioligand binding, NET (h); conditions: 10^−5 M; antagonist radioligand
T3 construct: Eurofins
T3 sequence (P23975 whole entry): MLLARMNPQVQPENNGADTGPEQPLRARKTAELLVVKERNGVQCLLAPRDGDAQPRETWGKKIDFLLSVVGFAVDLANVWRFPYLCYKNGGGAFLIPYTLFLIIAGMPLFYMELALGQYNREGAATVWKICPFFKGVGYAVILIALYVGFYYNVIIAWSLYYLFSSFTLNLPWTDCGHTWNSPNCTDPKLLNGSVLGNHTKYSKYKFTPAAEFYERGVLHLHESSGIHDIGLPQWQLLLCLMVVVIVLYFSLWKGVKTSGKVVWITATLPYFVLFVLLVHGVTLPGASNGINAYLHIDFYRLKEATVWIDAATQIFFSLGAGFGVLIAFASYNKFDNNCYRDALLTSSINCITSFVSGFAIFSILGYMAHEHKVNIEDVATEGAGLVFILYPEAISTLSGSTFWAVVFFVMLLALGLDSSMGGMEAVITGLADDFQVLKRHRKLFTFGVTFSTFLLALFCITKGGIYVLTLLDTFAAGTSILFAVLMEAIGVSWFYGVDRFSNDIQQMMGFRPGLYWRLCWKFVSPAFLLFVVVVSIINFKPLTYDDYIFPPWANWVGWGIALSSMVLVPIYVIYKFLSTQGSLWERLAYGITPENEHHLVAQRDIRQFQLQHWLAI
Method: as §1, §2, §3, §4

[5] = tested on: C57BL/6J mice; assay: Scopolamine-induced amnesia in the novel object recognition (NOR) test; format: in vivo
Method: The scopolamine-induced amnesia in the novel object recognition (NOR) test in mice is a recognized in vivo model of Alzheimer Disease (AD).
The aim of this study is to examine whether Melafenoxate (NLS-8) improves amnesia induced by scopolamine in the NOR test.
as §5
In a first step of the experiment, NLS-8 was tested at 25, 50 and 100 mg/kg.
Animals were divided into 6 groups (N=4-10/group).
At T=0 min, they received the following treatments by intraperitoneal (i.p.) route: • Control group: vehicle. • Scopolamine group: scopolamine (1.2 mg/kg). • NLS-8 25 group: NLS-8 (25 mg/kg)+scopolamine (1.2 mg/kg). • NLS-8 50 group: NLS-8 (50 mg/kg)+scopolamine (1.2 mg/kg). • NLS-8 100 group: NLS-8 (100 mg/kg)+scopolamine (1.2 mg/kg). • NLS-8 150 group: NLS-8 (150 mg/kg)+scopolamine (1.2 mg/kg).
At T=30 min following treatment, animals were subjected to a sample trial. They were placed for a 12-min session in a circular experimental box in which two identical objects were presented (50% of animals: two brown cylindrical vials; 50% of animals: two black rectangular columns). At t=120 min following treatments, mice were subjected to a choice trial. They were placed again for a 12-min session in the same experimental box in which two different objects (a vial and a column) were presented: one of the objects (termed as familiar object) presented in the sample trial and a novel object. Exploration of the objects was recorded by an experimenter blind to treatment and unaware of which object was the novel one and which object was the familiar one.
DI(discrimination index)=100 ×(exploration time of the novel object−exploration time of the familiar object)/(exploration time of the novel object+exploration time of the familiar object). • Index of exploration: N+F=exploration time of the novel object+exploration time of the familiar object.
• Within group comparisons: DI vs. 0 (paired Student's t test). • Between group comparisons vs. the Control group and vs. the Scopo group: unpaired Student's t test.

[6] = tested on: Cl— channel (GABA-gated); assay: Radioligand binding, Cl- channel (GABA-gated); conditions: antagonist radioligand
Method: as §1, §2, §3, §4

[7] = target: T4, MT1 (MLT1a) (h) (Homo sapiens, UniProt P48039); assay: Radioligand binding, MT1 (MLT1a) (h); conditions: 10^−5 M; agonist radioligand; % inhibition of control specific binding
T4 construct: CEREP (Eurofins, France)
T4 sequence (P48039 whole entry): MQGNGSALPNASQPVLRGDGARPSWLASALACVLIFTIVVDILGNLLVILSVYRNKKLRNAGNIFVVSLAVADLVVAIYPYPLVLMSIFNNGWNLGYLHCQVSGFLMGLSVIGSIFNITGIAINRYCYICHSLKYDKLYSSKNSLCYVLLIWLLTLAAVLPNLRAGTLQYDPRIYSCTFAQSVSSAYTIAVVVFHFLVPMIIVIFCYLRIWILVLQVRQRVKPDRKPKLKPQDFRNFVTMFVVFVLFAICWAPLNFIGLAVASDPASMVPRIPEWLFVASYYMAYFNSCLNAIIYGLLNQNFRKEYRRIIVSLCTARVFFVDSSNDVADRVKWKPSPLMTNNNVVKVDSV
Method: as §1, §2, §3, §4

[8] = NLS-8 25-150 mg/kg + scopolamine 1.2 mg/kg i.p.

In the case of `O=C(COc1ccc(Cl)cc1)OCCNC12CC3CC(CC(C3)C1)C2` [Melafenoxate, 2-(1-adamantylamino)ethyl 2-(4-chlorophenoxy)acetate], the inhibition at 10 µM [1] is reported as 12.8%, the inhibition at 10 µM [2] is reported as 20.9% and the “distance travelled in the open-field (locomotor activity) vs. Control group” value ([3]; 90-min session, C57BL/6J mice, listed as NLS-8) is reported as “did not significantly modify; also recorded: no significant”. The visible side effect ([3]; any dose tested) was “did not induce visible side effect”, the inhibition at 10 µM [4] was 16.5% and the “discrimination index vs. 0 (within group)” value ([5]; NLS-8 25 mg/kg + scopolamine 1.2 mg/kg i.p.) was “Non-significantly higher than 0”. The “discrimination index vs. 0 (within group)” value ([5]; NLS-8 50 mg/kg + scopolamine 1.2 mg/kg i.p.) was “Significantly higher than 0”, the “exploration time of objects (N+F) during the choice trial” value ([5]; NLS-8 50 mg/kg + scopolamine 1.2 mg/kg i.p., vs. Control and Scopo groups) was “higher than that of Control and Scopo groups” and the “discrimination index vs. 0 (within group)” value ([5]; NLS-8 100 mg/kg + scopolamine 1.2 mg/kg i.p.) was “Non-significantly higher than 0”. For the same compound, the “discrimination index vs. 0 (within group)” value ([5]; NLS-8 150 mg/kg + scopolamine 1.2 mg/kg i.p.) was “Non-significantly higher than 0”, the “effect on amnesia induced by scopolamine (conclusion)” value ([5]; NLS-8 25-150 mg/kg) was “can improve amnesia induced by scopolamine” and the “discrimination index, NLS-8 groups vs. Control group” value [5, 8] was “Not significantly different”. For the same compound, the “discrimination index, NLS-8 groups vs. Scopo group” value [5, 8] was “Not significantly different; also recorded: not significant”, the “exploration time of objects (N+F) during the choice trial” value ([5]; all other comparisons (other than NLS-8 50 group) vs. Control and vs. Scopo group) was “not significant” and the “% Inhibition at 10^−5 M” value [6] was 13.5%. It also gave an inhibition at 10 µM [7] of 75.2%.
